Measurements taken from paper PMC4919643, “Intestinally-targeted TGR5 agonists equipped with quaternary ammonium have an improved hypoglycemic effect and reduced gallbladder filling effect” (Scientific Reports, 2016).
Like-named read-outs stand apart in the source and are kept apart here.

Columns and labels:
[1] = Drug levels in plasma, bile and gallbladder tissue after 3 days oral administration to ob/ob mice; format: in vivo; settings: male, mouse, after the 3-day gallbladder filling assay, 100 mg/kg p.o.
Excerpt: Drug levels test in plasma, bile, and gallbladder tissue after 3 days oral administration to ob/ob mice. Plasma, bile, and gallbladder were taken from experiments performed in accordance with the guidelines for the use of experimental animals in the Shanghai Laboratory Animal Administration (Shanghai, China) after three days treatment of 26a to ob/ob mice. Blood samples were collected through cardiac puncture into heparinized tubes, and plasma was harvested by centrifugation. Bile and gallbladder tissue were collected from each mouse after blood withdrawal. To 10 mg of gallbladder was added 100 μL of MeOH, and the mixture was homogenized. A 15 μL aliquot of bile samples was diluted with 100 μL of MeOH and then mixed. Plasma, bile, and tissue homogenate were stored at −20 °C. These samples were protein precipitated with MeCN using clopidogrel as the internal standard, and the supernatant was injected onto a LC-MS/MS system for the quantification of 26a. Chromatographic separation was […]
0.5 mL min−1 using ternary mobile phase: A (H2O with 5 mM ammonium acetate and 0.5% TFA); B(MeCN: H2O = 95:5 with 0.1% TFA ); C (MeOH with 1% TFA). The MS/MS detection was carried out in MRM mode using a positive electrospray ionization […]
Long-term study of 26a in ob/ob mice. Three groups of ob/ob mice (male) was orally […]
At day 0 (before dosing), 4, 8, 12 and 18, non-fasted blood glucose was measured before dosing. Mice were fasted for 6 h after dosing and then fasted blood glucose was measured.
The serum level of HbA1c was measured at day 0 (before dosing) and 18 by Adicon biochemical analyzer. The body weight of each mouse was recorded every day. The triglyceride and total cholesterol level was measured after the final dose.
Statistical analysis. All data were expressed as the mean ± SEM or mean ± SD. For the experiment including multiple time points, one-way ANOVA statistical analysis was used; otherwise, unpaired Student’s t test was used. P < 0.05 was considered to be statistically significant.

ob/ob mice [2] = assay: Long-term (18-day) study in ob/ob mice; format: in vivo, mouse; settings: for decrease of HbA1c level on day 18: 18 days; for HbA1c, signed change vs control (Fig. 9C): day 18
ob/ob mice [3] = assay: Gallbladder filling assay in ob/ob mice; format: in vivo, mouse; settings: once a day oral dose 100 mg/kg (single dose)
Procedure: Figure 8 (A) Relative gallbladder area and (B) relative bile weight after once a day oral dose or 3-day treatment. […] 1 h after the final dose, mice were re-fed for 3 h and then the gallbladder was removed and the area measured using a vernier caliper. The relative gallbladder area was calculated from the length multiplied by the width of the gallbladder. Bile weight was measured using analytical balances. **p < 0.01; ***p < 0.001. Error bar indicates SEM.
Acute efficacy in ob/ob mice. 7-week-old ob/ob mice (male) were divided into three groups (n = 8) based on 2 h-fasted blood glucose. […]
mg/kg) and 0.25% CMC (control) was then orally administered to 2 h-fasted mice, and blood glucose was measured at 2, 4, 6, 8, 10, and 24 h after dosing. […]
then divided into 3 subgroup of different time point (n = 8-9 each subgroup). […] Concentrations of active GLP-1[7-36 amide] in the serum were measured using ELISA kit from Linco Research. […]
administered to 12 h-fasted ob/ob mice (n = 3 per time point). […] After centrifugation at 11000 rpm for 5 mins, the supernatant was analyzed by LC-MS/MS. […]
administered orally to overnight-fasted ob/ob mice (male, n = 3-6). 1 h after dosing, mice were refed for 3 hours, and then gallbladders were removed, and the area was measured using vernier caliper. The relative gallbladder area was calculated from the length multiplied by the width of the gallbladder. […]

[4] = Pharmacokinetics assay of 26a in ob/ob mice (plasma and intestinal tissue); format: in vivo, mouse
Procedure: The blood and intestinal tissue samples were collected before dosing or 2, 4, 6, 10, 16, and 24 h after dosing. Density of intestinal tissue was taken as 1 g/ml. Error bar indicates SEM. […]
Pharmacokinetics assay of 26a in ob/ob mice. […]
administered to 12 h-fasted ob/ob mice (n = 3 per time point). Blood and intestinal tissue samples were collected before dosing or 2 h, 4 h, 6 h, 10 h 16 h, 24 h after dosing. Blood samples were centrifuged at 11000 rpm for 5 min to isolate the plasma. 25 μL of the sample was mixed with 75 μL MeOH. After centrifugation at 11000 rpm for 5 mins, the supernatant was analyzed by LC-MS/MS.
The tissues were ground and homogenated with 0.9% NaCl solution (1:4, w/v), and then the homogenates were centrifuged at 12,000 rpm for 10 min at 4 °C. The supernatant was collected, and 100 μL aliquot of supernatant was spiked with 300 μL methanol, and then treated as the same fashion as plasma sample. […]

[5] = 100 mg/kg p.o., after 18-day treatment
[6] = 18-day treatment, 50 or 100 mg/kg p.o., dose-dependent
[7] = 18-day treatment, data not shown

concentration at 3 days ([1]; read-out: concentration in gallbladder): 112 ± 30 ng/mL
concentration at 3 days ([1]; bile, read-out: concentration in bile): 7800 ± 1850 ng/mL
concentration at 3 days ([1]; plasma, read-out: concentration in plasma): 18 ± 3 ng/mL
level of alanine aminotransferase (ob/ob mice [2]; [7]): No significant changes
level of alkaline phosphatase (ob/ob mice [2]; [7]): No significant changes
level of aspartate aminotransferase (ob/ob mice [2]; [7]): No significant changes
level of total bilirubin (ob/ob mice [2]; [7]): No significant changes
time of Cmax in intestinal tissue ([4]; 100 mg/kg p.o. single dose): 2 h
time of Cmax in plasma ([4]; 100 mg/kg p.o. single dose): 2 h
Cmax ([4]; male, mouse, colon, po, 100 mg/kg p.o., at 2 h, tissue density taken as 1 g/ml, read-out: Cmax in colon tissue): 27 µg/mL
Cmax ([4]; male, mouse, duodenum, po, 100 mg/kg p.o., at 2 h, tissue density taken as 1 g/ml, read-out: Cmax in duodenum tissue): 136 µg/mL
Cmax ([4]; male, mouse, ileum, po, 100 mg/kg p.o., at 2 h, tissue density taken as 1 g/ml, read-out: Cmax in ileum tissue): 331 µg/mL
concentration at 24 h ([4]; male, mouse, intestinal tissue, po, 100 mg/kg p.o. single dose, read-out: level in intestinal tissue at 24 h): > 800 ng/mL
Cmax ([4]; male, mouse, jejunum, po, 100 mg/kg p.o., at 2 h, tissue density taken as 1 g/ml, read-out: Cmax in jejunum tissue): 92 µg/mL
Cmax ([4]; male, mouse, plasma, po, 100 mg/kg p.o. single dose, read-out: Cmax in plasma): 0.071 µg/mL
concentration at 10 h ([4]; male, mouse, plasma, po, 100 mg/kg p.o. single dose, read-out: drug concentration in plasma after 10 h): < 10 ng/mL
Compound: CN(CC[N+](C)(C)C)C(=O)CCc1cc(Cl)c(Oc2ccsc2C(=O)N2CCN(C3CC3)c3ccccc32)cc1Cl [Compound 26a]
decrease of HbA1c level on day 18 (ob/ob mice [2]; 50 mg/kg p.o., not significant): 0.48%
triglyceride, signed change vs control (Fig. 9D) (ob/ob mice [2]; 50 mg/kg p.o., after 18-day treatment): -7.2%
HbA1c, signed change vs control (Fig. 9C) (ob/ob mice [2]; 50 mg/kg p.o.): -0.48%
decrease of HbA1c level on day 18 (ob/ob mice [2]; 100 mg/kg p.o., significant): 0.94%
decrease of triglyceride level (ob/ob mice [2]; [5]): 22%
triglyceride, signed change vs control (Fig. 9D) (ob/ob mice [2]; [5]): -22%
HbA1c, signed change vs control (Fig. 9C) (ob/ob mice [2]; 100 mg/kg p.o.): -0.94%
body weight of mice (ob/ob mice [2]; 18-day treatment): not affected
significant change in levels of total cholesterol (ob/ob mice [2]; 18-day treatment, 50 or 100 mg/kg p.o.): not observed
fasting blood glucose (ob/ob mice [2]; [6]): decreased dramatically
non-fasting blood glucose (ob/ob mice [2]; [6]): decreased dramatically
bile weight vs control (ob/ob mice [3]): did not increase gallbladder area or bile weight significantly
gallbladder area vs control (ob/ob mice [3]): did not increase gallbladder area or bile weight significantly
